Reference: patent US12583858B2 (Genentech, Inc., priority 2015, dated 2026)
pEC50: −log10 of the molar value. Read-outs that look alike come from different tables or passages of the source.

What was measured:
TDO2 = target: T1, TDO2 (Homo sapiens, UniProt P48775); assay: TDO2 cell assay (NFK GreenScreen, SW48 cells); format: cell-based; conditions: SW48 cells (high TDO expressing)
T1 construct: decreased levels of NFK in SW48 cells (high TDO expressing cells)

IDO = target: T2, IDO (Homo sapiens, UniProt P14902); assay: IDO cell assay (NFK GreenScreen, A172+IFNg cells); format: cell-based; conditions: A172 cells + 100 ng/ml IFNγ (high IDO expressing), 100 uM tryptophan, 24 hours; TDO selectivity table; read-out: IDO cell Fluor EC50
T2 construct: selective against A172+IFNg cells (high IDO expressing cells)
Procedure: Cells are counted on a Vi-Cell (Beckman Coulter). […] The final DMSO concentration is 0.5%.
Compounds of the invention were tested for selectivity against TDO over IDO. The cell based assay described above was used to test for TDO and IDO activity.

[1] = 200 uM tryptophan, 24 hours, Table 3, read-out: TDO2 Cell Fluor EC50
[2] = TDO selectivity table, read-out: TDO2 cell Fluor EC50

T1 sequence (P48775 whole entry): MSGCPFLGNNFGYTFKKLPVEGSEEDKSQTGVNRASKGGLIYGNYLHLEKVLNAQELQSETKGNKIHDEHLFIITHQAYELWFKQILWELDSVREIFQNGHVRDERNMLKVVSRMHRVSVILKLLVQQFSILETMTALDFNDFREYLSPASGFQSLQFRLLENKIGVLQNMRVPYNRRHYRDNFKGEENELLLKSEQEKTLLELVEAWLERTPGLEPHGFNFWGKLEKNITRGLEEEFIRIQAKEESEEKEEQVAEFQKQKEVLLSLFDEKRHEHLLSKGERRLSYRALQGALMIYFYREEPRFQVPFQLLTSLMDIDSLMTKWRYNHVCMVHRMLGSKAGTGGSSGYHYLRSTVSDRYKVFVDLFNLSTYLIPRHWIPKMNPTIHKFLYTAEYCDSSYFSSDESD
T2 sequence (P14902 whole entry): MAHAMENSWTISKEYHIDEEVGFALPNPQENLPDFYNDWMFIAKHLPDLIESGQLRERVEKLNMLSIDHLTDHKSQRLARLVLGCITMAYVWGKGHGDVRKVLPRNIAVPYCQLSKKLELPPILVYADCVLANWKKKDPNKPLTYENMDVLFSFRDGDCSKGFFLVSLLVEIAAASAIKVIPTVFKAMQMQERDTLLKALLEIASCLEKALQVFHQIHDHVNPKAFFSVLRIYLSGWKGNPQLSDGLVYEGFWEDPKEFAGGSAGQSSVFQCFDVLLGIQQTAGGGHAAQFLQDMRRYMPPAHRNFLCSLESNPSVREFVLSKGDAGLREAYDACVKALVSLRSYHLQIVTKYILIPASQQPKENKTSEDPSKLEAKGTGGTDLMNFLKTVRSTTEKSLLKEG

pEC50 (TDO2; [1])	pEC50 (TDO2; [2])	pEC50 (IDO)	Structure (SMILES)
7.31	7.31	5.92	OC1c2cnccc2CCC1C1c2ccccc2-c2cncn21 (single isomer, unassigned) [Example 04e]
6.42	6.42	4.89	Cn1ncc2c1CCC(C1c3ccccc3-c3cncn31)C2O (single isomer, unassigned) [Example 93a]
6.96	6.96	5.08	OC1c2cncnc2CCC1C1c2ccccc2-c2cncn21 (single isomer, unassigned) [Example 94c]
7.24	7.24	5.77	NS(=O)(=O)c1ccc2c(c1)CCC(C1c3ccccc3-c3cncn31)C2O (single isomer, unassigned) [Example 100g]
6.11	6.11	4.68	NS(=O)(=O)N1CCC(O)C(C2c3ccccc3-c3cncn32)CC1 (single isomer, unassigned) [Example 101d, 4-hydroxy-5-(5H-imidazo[5,1-a]isoindol-5-yl)azepane-1-sulfonamide]
6.64	6.64	< 4.60	OC1C(C2c3ccc(F)cc3-c3cncn32)CC12CCOCC2 (single isomer, unassigned) [Example 109c]
6.62	6.62	4.82	OC1c2cnncc2CCC1C1c2ccccc2-c2cncn21 (single isomer, unassigned) [Example 112b]
7.46	7.46	5.59	NC(=O)c1ccc2c(c1)C(O)C(C1c3ccccc3-c3cncn31)CC2 (single isomer, unassigned) [Example 122a]
7.06	7.06	5.74	Cn1cc2c(n1)CCC(C1c3ccccc3-c3cncn31)C2O (single isomer, unassigned) [Example 130d]
7.26	7.26	5.68	NC(=O)c1nc2c(s1)CCC(C1c3ccccc3-c3cncn31)C2O (single isomer, unassigned) [Example 149b]
7.38	7.38	5.10	OC1c2[nH]ncc2CCC1C1c2ccccc2-c2cncn21 (single isomer, unassigned) [Example 157g]
7.43	7.43	5.62	O[C@@H]1CC[C@H]1[C@H]1c2ccccc2-c2cncn21 [Example 01d, (1R,2S)-2-((S)-5H-imidazo[5,1-a]isoindol-5-yl)cyclobutan-1-ol]
6.07	6.07	< 4.60	O[C@@H]1c2cncn2CC[C@H]1[C@H]1c2ccccc2-c2cncn21 [Example 07h, (7S,8S)-7-((S)-5H-imidazo[5,1-a]isoindol-5-yl)-5,6,7,8-tetrahydroimidazo[1,5-a]pyridin-8-ol]
6.96	6.96	5.92	CCS(=O)(=O)N1CC[C@@H]([C@H]2c3ccccc3-c3cncn32)[C@H](O)C1 [Example 16a, (3S,4S)-1-(ethylsulfonyl)-4-((S)-5H-imidazo[5,1-a]isoindol-5-yl)piperidin-3-ol]
7.80	7.80	5.70	CC1(C)C[C@@H](O)[C@@H]1[C@H]1c2ccccc2-c2cncn21 [Example 22b, (1R,2S)-2-((S)-5H-imidazo[5,1-a]isoindol-5-yl)-3,3-dimethylcyclobutan-1-ol]
6.60	6.60	5.30	C[C@H](O)[C@H]1c2ccccc2-c2cncn21 [Example 42c, (S)-1-((R)-5H-imidazo[5,1-a]isoindol-5-yl)ethan-1-ol]
6.82	6.82	5.35	O[C@@H]1c2ccnn2CC[C@H]1[C@H]1c2ccccc2-c2cncn21 [Example 56a, (4S,5S)-5-((S)-5H-imidazo[5,1-a]isoindol-5-yl)-4,5,6,7-tetrahydropyrazolo[1,5-a]pyridin-4-ol]
5.96			CS(=O)(=O)N1CCC[C@](O)([C@@H]2c3ccccc3-c3cncn32)C1 [Example 134a, (R)-3-((S)-5H-imidazo[5,1-a]isoindol-5-yl)-1-(methylsulfonyl)piperidin-3-ol]
< 4.60			CC(C)[C@@H](O)[C@H]1c2ccc(F)cc2-c2cncn21 [Example 135b, (R)-1-((R)-8-fluoro-5H-imidazo[5,1-a]isoindol-5-yl)-2-methylpropan-1-ol]
< 4.60			O[C@@H]1c2cccn2CC[C@@H]1[C@@H]1c2ccccc2-c2cncn21 [Example 136b, (7R,8S)-7-((R)-5H-imidazo[5,1-a]isoindol-5-yl)-5,6,7,8-tetrahydroindolizin-8-ol]

pEC50 (TDO2; [1])	pEC50 (TDO2; [2])	pEC50 (IDO)	Structure (SMILES)
5.10			CC[C@H](O)[C@@H]1c2ccccc2-c2cncn21 [Example 137b, (S)-1-((S)-5H-imidazo[5,1-a]isoindol-5-yl)propan-1-ol]
5.01			O[C@H](C1CCOCC1)[C@@H]1c2ccccc2-c2cncn21 [Example 138a, (R)—((S)-5H-imidazo[5,1-a]isoindol-5-yl)(tetrahydro-2H-pyran-4-yl)methanol]
4.85			O[C@H](C1CCCCC1)[C@@H]1c2ccccc2-c2cncn21 [Example 148a, (R)-cyclohexyl((S)-5H-imidazo[5,1-a]isoindol-5-yl)methanol]
4.80			O[C@@H](C1CCCCC1)[C@H]1c2ccccc2-c2cncn21 [Example 148b, (S)-cyclohexyl((R)-5H-imidazo[5,1-a]isoindol-5-yl)methanol]
4.92			O[C@@H]1CC(CF)(CF)[C@@H]1[C@H]1c2ccccc2-c2cncn21 [Example 150a, (1R,2R)-3,3-bis(fluoromethyl)-2-((S)-5H-imidazo[5,1-a]isoindol-5-yl)cyclobutan-1-ol]
6.96			O[C@H]1CC(CF)(CF)[C@H]1[C@@H]1c2ccccc2-c2cncn21 [Example 150c, (1S,2S)-3,3-bis(fluoromethyl)-2-((R)-5H-imidazo[5,1-a]isoindol-5-yl)cyclobutan-1-ol]
6.28			O[C@@H]1c2c(F)cnn2CC[C@@H]1[C@@H]1c2ccccc2-c2cncn21 [Example 151a, (4S,5R)-3-fluoro-5-((R)-5H-imidazo[5,1-a]isoindol-5-yl)-4,5,6,7-tetrahydropyrazolo[1,5-a]pyridin-4-ol]
6.48			CC(C)(C(N)=O)[C@@H](O)[C@H]1c2ccccc2-c2cncn21 [Example 155a, (R)-3-hydroxy-3-((R)-5H-imidazo[5,1-a]isoindol-5-yl)-2,2-dimethylpropanamide]
4.64			O[C@H]1c2[nH]ncc2CC[C@H]1[C@H]1c2ccccc2-c2cncn21 [Example 157d, (6S,7R)-6-((S)-5H-imidazo[5,1-a]isoindol-5-yl)-4,5,6,7-tetrahydro-1H-indazol-7-ol]
5.10			OC1CC(C2c3ccccc3-c3cncn32)C1O (centres unmarked) [Example 158a, 3-(5H-imidazo[5,1-a]isoindol-5-yl)cyclobutane-1,2-diol]
< 4.60			O[C@@H]1c2c(Cl)cnn2CC[C@@H]1[C@@H]1c2ccccc2-c2cncn21 [Example 160a, (4S,5R)-3-chloro-5-((R)-5H-imidazo[5,1-a]isoindol-5-yl)-4,5,6,7-tetrahydropyrazolo[1,5-a]pyridin-4-ol]
6.70			O[C@H]1c2c(Cl)cnn2CC[C@H]1[C@H]1c2ccccc2-c2cncn21 [Example 160b, (4R,5S)-3-chloro-5-((S)-5H-imidazo[5,1-a]isoindol-5-yl)-4,5,6,7-tetrahydropyrazolo[1,5-a]pyridin-4-ol]
4.74			Nc1cc2n(n1)CC[C@H]([C@H]1c3ccccc3-c3cncn31)[C@H]2O [Example 161a, (4R,5R)-2-amino-5-((S)-5H-imidazo[5,1-a]isoindol-5-yl)-4,5,6,7-tetrahydropyrazolo[1,5-a]pyridin-4-ol]
6.15			Nc1cc2n(n1)CC[C@@H]([C@H]1c3ccccc3-c3cncn31)[C@@H]2O [Example 161b, (4S,5S)-2-amino-5-((S)-5H-imidazo[5,1-a]isoindol-5-yl)-4,5,6,7-tetrahydropyrazolo[1,5-a]pyridin-4-ol]
4.92			Nc1cc2n(n1)CCC(C1c3ccccc3-c3cncn31)C2O [Example 161d, (4S,5R)-2-amino-5-((S)-5H-imidazo[5,1-a]isoindol-5-yl)-4,5,6,7-tetrahydropyrazolo[1,5-a]pyridin-4-ol]
< 4.60			Nc1cc2n(n1)CCC(C1c3ccccc3-c3cncn31)C2O [Example 161f, (4R,5S)-2-amino-5-((R)-5H-imidazo[5,1-a]isoindol-5-yl)-4,5,6,7-tetrahydropyrazolo[1,5-a]pyridin-4-ol]
4.80			NC(=O)C1([C@@H](O)[C@H]2c3ccccc3-c3cncn32)CC1 [Example 165a, 1-((R)-hydroxy((R)-5H-imidazo[5,1-a]isoindol-5-yl)methyl)cyclopropane-1-carboxamide]
< 4.60			NC(=O)C1([C@@H](O)[C@@H]2c3ccccc3-c3cncn32)CC1 [Example 165b, 1-((R)-hydroxy ((S)-5H-imidazo[5,1-a]isoindol-5-yl)methyl)cyclopropane-1-carboxamide]
< 4.60			NC(=O)C1([C@H](O)[C@@H]2c3ccccc3-c3cncn32)CC1 [Example 165d, 1-((S)-hydroxy ((S)-5H-imidazo[5,1-a]isoindol-5-yl)methyl)cyclopropane-1-carboxamide]
6.66			CS(=O)(=O)N1CC2(CC(C3c4ccccc4-c4cncn43)C2O)C1 (centres unmarked) [Example 183, 6-(5H-imidazo[5,1-a]isoindol-5-yl)-2-(methylsulfonyl)-2-azaspiro[3.3]heptan-5-ol]
